# In patent US6479504B1, “Antagonism of immunostimulatory CpG-oligonucleotides by 4-aminoquinolines and other weak bases” (The University of Iowa Research Foundation, priority 1999, dated 2002):
# Like-named read-outs stand apart in the source and are kept apart here.
# Tests used:
# [1] = system: CpG-ODN effect on thymidine uptake by WEHI 231 B-cells; assay: Inhibition of CpG-ODN effect on thymidine uptake by WEHI 231 B-cells treated with anti-surface IgM; assay type: cell-based, murine
# Excerpt: The ability of analogs to inhibit an immunostimulatory effect of CpG-ODN was examined. This assay measures the reversal of the protection by CpG-ODN against surface IgM induced killing of WEHI 231 cells.
# WEHI 231 cells [2] = details: 1 μM
# CpG ODN 1760 = assay: DNA thermal melting at 260 nm; assay type: binding; details: 0.3 moles of compound per base, MES with 150 mM KCl, pH 4.4
# Procedure: Thermal melting studies were conducted at 260 nm with a Cary spectrophotometer interfaced to a microcomputer. A thermistor fixed into a reference cuvette was used to monitor the temperature. The DNA oligomer was added to 1 mL of buffer (MES with 150 mM KCl, pH 4.4) in 1 cm path length reduced-volume quartz cells. Studies were generally conducted a at concentration of 5×10-^5M bases. […].
# Structural nucleic acids with duplex or single-stranded folded conformations generally give sigmoid thermal melting curves characteristic of thermal unfolding of the structures. This unfolding results in a change in the UV spectrum. […]
# WEHI 231 cells [3] = assay: Uptake of Texas Red-labeled CpG-ODN 1760 by flow cytometry; assay type: cell-based, murine; details: 5 ug/ml Texas Red CpG-ODN 1760
# Procedure: FIG. 6. […] The cells were then washed three times, and fixed. The cellular uptake of fluorescent CpG-ODN was estimated by flow cytometry. […] .
# After incubation with the additions indicated, the cells were centrifuged and resuspended three times into Hanks buffered salt solution at 37° to remove surface bound ODN, and then resuspended and fixed in 2% paraformaldehyde for analysis in the University of-Iowa Flow Cytometry Facility. 10,000 events were recorded using a Coulter EPICS 753 at 488/600 nm, gating out dead cells. The mean cellular fluorescence was recorded.
# The effect of chloroquine and non-fluorescent analogs on the uptake of Texas Red-labeled CpG-ODN 1760 was investigated. […] . Flow cytometry measures cell-associated fluorescence because signals derived from dead cells (which take up ODN avidly, (Tonkinson and Stein, 1994)) are easily gated out of the analysis.
# WEHI 231 cells [4] = assay: Confocal microscopy of subcellular distribution of internalized CpG-ODN
# triple-helix DNA = details: cited from earlier work
# RNA = details: cited from earlier work
# [5] = experimental, ring nitrogen of the quinoline; taken from Strekowski et al., J Med. Chem. 1996; cited from earlier work
# duplex DNA = details: cited from earlier work
# quadruplex DNA = assay: Quadruplex DNA stabilization; assay type: binding
# Excerpt: Since nucleic acids are involved and several compounds of this study have been shown previously to strongly stabilize a triple-helix DNA structure, it was hypothesized initially that stabilization of the triple helix complex is part of the mechanism. […] In addition, compound 1 binds weakly to RNA (Wilson et al., 1993).
# WEHI 231 cells [6] = assay: Monensin effect on cellular concentration of quinacrine; assay type: cell-based, murine; details: Mus musculus, WEHI231, 0.5 h; 1 uM quinacrine, 30 min; read-out: Monensin concentration for half maximal inhibition of quinacrine uptake and loss of quinacrine from preloaded cells
# Procedure: FIG. 5. Monensin: Cells were incubated with 1 uM quinacrine 17 or compound 227 for 30 min. Monensin at the indicated concentration was added either at the same time as the analog or at the end of the 30 min incubation, and the cellular concentration of the analog was determined by fluorescence.
# Both effects were half maximal at a monensin concentration of about 1 μM (FIG. 5). Similar results were obtained with other analogs.
# WEHI 231 cells [7] = details: mouse
# Procedure: Cellular uptake of analogs was estimated by fluorescence. […] The cells were pelleted by centrifugation, and the fluorescence of the supernatant was measured after dilution with the appropriate buffer. The cell pellet was extracted with 1 ml Catrimox-14 (Iowa Biotechnology Corp., Coralville, La.), and the insoluble nucleic acids were removed by centrifugation (16,000×g, 10 min). The resulting extract was diluted with the appropriate buffer, and its fluorescence was measured. […] The fluorescence intensity and spectra were determined with a Farrand Manual Spectrofluorometer at three pH's (3.4, 7.4, 10.0). Subsequent measurements of fluorescence were performed at pH giving the highest yield (Table I).
# Standard curves of the fluorescence intensity of each analog in cell culture medium and in the cell extract buffer were prepared, measurements being taken at the pH listed in the table. To examine the uptake of the analogs by cells, WEHI 231 cells were incubated with a range of concentrations of the analogs, and measured the concentration of the analog remaining in the supernatant and the amount of analog in the extract of a cell pellet using the standard curves.
# The sources were a=Sigma Chemical Co., b=National Cancer Institute, c=Synthesized by LS, d=Synthesized by FMI. […] ND, not determined.
# [8] = concentration required for 50% blockage of the ability of CpG-ODN to rescue WEHI 231 cells from anti-surface IgM-induced cell death, read-out: 50% Efficacy
# [9] = concentration for half-maximal inhibition of CpG-ODN effect on thymidine uptake by WEHI 231 B-cells in presence of anti-sIgM, estimated experimental error ± 15%, read-out: EC50
# [10] = Mus musculus, WEHI231, concentration for half-maximal inhibition of CpG-ODN effect on thymidine uptake by WEHI 231 B-cells in presence of anti-sIgM, estimated experimental error ± 15%, read-out: EC50
# [11] = Mus musculus, WEHI231, concentration required for 50% blockage of the ability of CpG-ODN to rescue WEHI 231 cells from anti-surface IgM-induced cell death, read-out: 50% Efficacy
structure (smiles),measurement,setting,value
COc1ccc2nc3cc(Cl)ccc3c(NC3CCCCC3Nc3ccnc4cc(Cl)ccc34)c2c1 (racemic) [Ism 9],EC50,[1]; [8],105 nM
COc1ccc2nc3cc(Cl)ccc3c(NC3CCCCC3Nc3c4ccc(Cl)cc4nc4ccc(OC)cc34)c2c1 (racemic) [Ism 16],EC50,[1]; [8],14.5 nM
"CCN(CC)CCCC(Nc1c2ccc(Cl)cc2nc2ccc(OC)cc12)c1ccncc1 (centres unmarked) [10591-T/2, reference compound]",EC50,[1]; [8],30.2 nM
"CCN(CC)CCCC(C)Nc1ccnc2cc(Cl)ccc12 (centres unmarked) [Chloroquine, chloroquine]",Increase in the pH of CpG-ODN-containing compartment,WEHI 231 cells [2],less than 0.01 pH units
same,Change in the thermal melting curve of the free CpG-ODN,CpG ODN 1760,did not cause any significant change
same,Suppression of CpG-ODN responses,[1]; 1 μM,completely suppresses
same,Influence on CpG-ODN uptake,WEHI 231 cells [3],no significant influence
same,Influence on subcellular distribution of internalized CpG-ODN,WEHI 231 cells [4],did not influence
CN(C)CCNc1cc(-c2ccc3ccccc3c2)nc2ccccc12 [Compound 1],Triplex DNA stabilization / binding,triple-helix DNA,one of the best triplex DNA stabilizing agents known to date
same,EC50,[1]; [9],9.1 nM
same,Binding to RNA,RNA,binds weakly
same,pKa,[5],7.1
same,Binding to duplex DNA,duplex DNA,binds weakly
same,Stabilization of quadruplex DNA,quadruplex DNA,do not stabilize
CN(C)CCNc1cc(-c2ccc3ccc4ccccc4c3c2)nc2ccccc12 [Compound 2],EC50,[1]; [9],11 nM
CN(C)CCNc1cc(-c2cccc3ccccc23)nc2ccccc12 [Compound 3],Triplex DNA stabilization / binding,triple-helix DNA,does not promote triplex DNA formation and does not bind to the triple DNA structure
same,EC50,[1]; [9],39.8 nM
same,Binding to duplex DNA,duplex DNA,does not bind at all
same,Stabilization of quadruplex DNA,quadruplex DNA,do not stabilize
Cc1ccc(-c2cc(NCCN(C)C)c3ccccc3n2)cc1 [Compound 4],EC50,[1]; [9],12.3 nM
CN(C)CCNc1cc(/C=C/c2ccccc2)nc2ccccc12 [Compound 5],EC50,[1]; [9],6.5 nM
CN(C)CCNc1cc(-c2ccc(C(F)(F)F)cc2)nc2ccccc12 [Compound 6],EC50,[1]; [9],155 nM
CN(C)CCN(C)c1cc(-c2ccc3ccccc3c2)nc2ccccc12 [Compound 7],EC50,[1]; [9],416 nM
same,pKa,[5],6.2
CN(C)CCSc1cc(-c2ccc3ccccc3c2)nc2ccccc12 [Compound 9],EC50,[1]; [9],2400 nM
same,pKa,[5],4.4
CN(C)CCNC(=O)c1cc(-c2ccc3ccccc3c2)nc2ccccc12 [Compound 10],EC50,[1]; [9],> 10000 nM
same,pKa,[5],2.9
CN(C)CCCNc1ccnc2ccccc12 [Compound 11],EC50,[1]; [9],4400 nM
Cc1ccc(-c2cc(NCCCN(C)C)c3ccccc3n2)cc1 [Compound 12],EC50,[1]; [9],11.5 nM
CN(C)CCCNc1cc(-c2ccc3ccccc3c2)nc2ccccc12 [Compound 13],EC50,[1]; [9],11 nM
CN(C)CCCCNc1ccnc2ccccc12 [Compound 14],EC50,[1]; [9],316 nM
CN(C)CCCCNc1cc(-c2ccc3ccccc3c2)nc2ccccc12 [Compound 15],EC50,[1]; [9],4 nM
CN(C)CCCCCCNc1cc(-c2ccc3ccccc3c2)nc2ccccc12 [Compound 16],EC50,[1]; [9],5.9 nM
CC(C)(C)OC(=O)NCCNc1cc(-c2ccc3ccccc3c2)nc2ccccc12 [Compound 20],EC50,[1]; [9],570 nM
CC(CCCC(C)(C)O)Nc1cc(-c2ccc3ccccc3c2)nc2ccccc12 (centres unmarked) [Compound 21],EC50,[1]; [9],1150 nM
CC(Nc1cc(-c2ccc3ccccc3c2)nc2ccccc12)C(O)c1ccccc1 (centres unmarked) [Compound 22],EC50,[1]; [9],1000 nM
OCCOCCNc1cc(-c2ccc3ccccc3c2)nc2ccccc12 [Compound 23],EC50,[1]; [9],330 nM
OCCCCCCNc1cc(-c2ccc3ccccc3c2)nc2ccccc12 [Compound 24],EC50,[1]; [9],170 nM
O=C(CCCO)NCCCN1CCN(CCCNc2cc(-c3ccc4ccccc4c3)nc3ccccc23)CC1 [Compound 25],EC50,[1]; [9],25.1 nM
CCCCc1ccc(Nc2cc(-c3ccc4ccccc4c3)nc3ccccc23)cc1 [Compound 26],EC50,[1]; [9],> 10000 nM
OCCc1ccc(Nc2cc(-c3ccc4ccccc4c3)nc3ccccc23)cc1 [Compound 27],EC50,[1]; [9],510 nM
Oc1ccc(Nc2cc(-c3ccc4ccccc4c3)nc3ccccc23)cc1 [Compound 28],EC50,[1]; [10],320 nM
Oc1c(CN2CCOCC2)cc(Nc2cc(-c3ccc4ccccc4c3)nc3ccccc23)cc1CN1CCOCC1 [Compound 29],EC50,[1]; [10],10 nM
Oc1c(CN2CCCCC2)cc(Nc2cc(-c3ccc4ccccc4c3)nc3ccccc23)cc1CN1CCCCC1 [Compound 30],EC50,[1]; [10],1.5 nM
Oc1c(CN2CCCC2)cc(Nc2cc(-c3ccc4ccccc4c3)nc3ccccc23)cc1CN1CCCC1 [Compound 31],EC50,[1]; [10],1.2 nM
CN1CCN(Cc2cc(Nc3cc(-c4ccc5ccccc5c4)nc4ccccc34)cc(CN3CCN(C)CC3)c2O)CC1 [Compound 32],EC50,[1]; [10],0.24 nM
"CCN(CCO)CCCC(C)Nc1ccnc2cc(Cl)ccc12 (centres unmarked) [Hydroxychloroquine, reference compound]",EC50,[1]; [11],407 nM
CN(C)CCNc1cc(-c2ccc3ccccc3c2)nc2ccccc12 [LS-8],EC50,[1]; [8],9.5 nM
CCCCN(CCCC)CCCNc1cc(-c2ccc3ccccc3c2)nc2ccccc12 [MHQ-6],EC50,[1]; [8],16.3 nM
CC[C@@]1([C@@H]2O[C@@H]([C@H]3O[C@@](O)(CO)[C@H](C)C[C@@H]3C)C[C@@H]2C)CC[C@H]([C@]2(C)CC[C@]3(C[C@H](O)[C@@H](C)[C@@H]([C@@H](C)[C@@H](OC)[C@H](C)C(=O)O)O3)O2)O1 [Monensin],EC50,WEHI 231 cells [6],~1000 nM
CN(C)CCCCCCNc1cc(-c2ccc3ccccc3c2)nc2ccccc12 [OZ-123],EC50,[1]; [8],5.9 nM
CCN(CC)CCCC(C)Nc1c2ccc(Cl)cc2nc2ccc(OC)cc12 (centres unmarked) [Quinacrine],Change in the thermal melting curve of the free CpG-ODN,CpG ODN 1760,did not cause any significant change
same,EC50,[1]; [11],10.2 nM
same,Cellular uptake ratio,WEHI 231 cells [7],601
"C=C[C@H]1C[N@@]2CC[C@H]1C[C@H]2[C@H](O)c1ccnc2ccc(OC)cc12 [Quinine, reference compound]",EC50,[1]; [11],23000 nM
